Measured values as given in ChEMBL document CHEMBL4251646, “Improved antibacterial activity of a marine peptide-N2 against intracellular Salmonella typhimurium by conjugating with cell-penetrating peptides-bLFcin6/Tat11” (Eur J Med Chem, 2018).
Values after ≈ are worked out from the molar mass of the structure shown. Active and inactive are the calls of the source. The calls are words filed in the database; no cut-off is given here.

Key:
[1] = test system: Salmonella typhimurium; assay: Antibacterial activity against Salmonella typhimurium ATCC 14028 at pH 7 after 16 to 18 hrs by broth microdilution method; type: functional, Salmonella enterica subsp. enterica serovar Typhimurium; details: Salmonella enterica
[2] = test system: Salmonella typhimurium; assay: Bactericidal activity against Salmonella typhimurium ATCC 14028 at 10 uM within 3 to 9 hrs; type: functional, Salmonella enterica subsp. enterica serovar Typhimurium
[3] = test system: Salmonella typhimurium; assay: Bactericidal activity against Salmonella typhimurium ATCC 14028 infected in mouse RAW264.7 cells assessed as log reduction in intracellular bacterial load at 5 uM after 10 hrs in presence of gentamycin; type: functional, Salmonella enterica subsp. enterica serovar Typhimurium
[4] = test system: Salmonella typhimurium; assay: Bactericidal activity against Salmonella typhimurium ATCC 14028 at 0.03125 to 4 times MIC after 24 hrs by dose-kill assay; type: functional, organism-based; details: Salmonella enterica subsp. enterica serovar Typhimurium
[5] = test system: Salmonella typhimurium; assay: Antibacterial activity against Salmonella typhimurium ATCC 14028 assessed as survival at 10 uM after 3 hrs by broth microdilution method; type: functional, Salmonella enterica subsp. enterica serovar Typhimurium
[6] = test system: Salmonella typhimurium; assay: Bactericidal activity against Salmonella typhimurium ATCC 14028 infected in mouse RAW264.7 cells assessed as log reduction in intracellular bacterial load at 10 uM after 10 hrs in presence of gentamycin; type: functional, Salmonella enterica subsp. enterica serovar Typhimurium
[7] = test system: Salmonella typhimurium; assay: Antibacterial activity against Salmonella typhimurium ATCC 14028 at pH 5 after 16 to 18 hrs by broth microdilution method; type: functional, Salmonella enterica subsp. enterica serovar Typhimurium; details: Salmonella enterica
[8] = test system: Salmonella typhimurium; assay: Bactericidal activity against Salmonella typhimurium ATCC 14028 at 1 to 2 times MIC after 2 hrs by time-kill assay; type: functional, organism-based; details: Salmonella enterica subsp. enterica serovar Typhimurium
[9] = test system: Salmonella typhimurium; assay: Bactericidal activity against Salmonella typhimurium ATCC 14028 at 10 uM up to 9 hrs; type: functional, organism-based; details: Salmonella enterica subsp. enterica serovar Typhimurium
[10] = test system: Salmonella typhimurium; assay: Bactericidal activity against Salmonella typhimurium ATCC 14028 at 0.125 to 1 times MIC after 24 hrs by dose-kill assay; type: functional, organism-based; details: Salmonella enterica subsp. enterica serovar Typhimurium
[11] = Drug uptake in mouse RAW264.7 cells at 2 uM using FITC-labeled test compound after 2 hrs at 4 degC in presence of microtubule polymerization inhibitor nocodazole by trypan blue staining-based flow cytometry; type: ADME, cell-based; details: raw264.7, 2 h
[12] = Drug internalization in mouse RAW264.7 cells at 1 uM using FITC-labeled test compound after 0.5 hrs by flow cytometry; type: ADME, cell-based; details: raw264.7, 0.5 h
[13] = Drug uptake in mouse RAW264.7 cells at 0.5 uM using FITC-labeled test compound at 4 degC after 2 hrs by flow cytometry; type: ADME, cell-based; details: raw264.7, 2 h
[14] = Drug uptake in mouse RAW264.7 cells at 2 uM using FITC-labeled test compound at 4 degC after 2 hrs in presence of clathrin-mediated endocytosis inhibitor chlorpromazine by trypan blue staining-based flow cytometry; type: ADME, cell-based; details: raw264.7, 2 h
[15] = Drug uptake in mouse RAW264.7 cells at 5 uM using FITC-labeled test compound after 0.5 hrs by flow cytometry; type: ADME, cell-based; details: raw264.7, 0.5 h
[16] = Drug internalization in mouse RAW264.7 cells at 1 uM using FITC-labeled test compound after 2 hrs by flow cytometry; type: ADME, cell-based; details: raw264.7, 2 h
[17] = Drug uptake in mouse RAW264.7 cells at 2 uM using FITC-labeled test compound at 4 degC after 2 hrs in presence of lipid raft disruptor MbetaCD by trypan blue staining-based flow cytometry; type: ADME, cell-based; details: raw264.7, 2 h
[18] = Drug uptake in cytosol of mouse RAW264.7 cells at 5 uM using FITC-labeled test compound after 5 hrs by Hoechst 33342/FM 4-64 staining-based confocal microscopic analysis; type: ADME, subcellular
[19] = Drug internalization in mouse RAW264.7 cells using FITC-labeled test compound by flow cytometry; type: ADME, cell-based
[20] = Drug uptake in mouse RAW264.7 cells at 2 uM using FITC-labeled test compound at 4 degC after 2 hrs in presence of macropinocytosis inhibitor amiloride by trypan blue staining-based flow cytometry; type: ADME, cell-based; details: raw264.7, 2 h
[21] = Drug uptake in mouse RAW264.7 cells at 5 uM using FITC-labeled test compound after 2 hrs by flow cytometry; type: ADME, cell-based; details: raw264.7, 2 h
[22] = Cytotoxicity against mouse RAW264.7 cells assessed as cell survival at 100 uM after 8 hrs by MTT assay; type: cell-based; details: read-out: Survival
[23] = test system: Salmonella typhimurium; assay: Bactericidal activity against Salmonella typhimurium ATCC 14028 at MIC up to 6 hrs by time-kill assay; type: functional, organism-based; details: Salmonella enterica subsp. enterica serovar Typhimurium

## H-RRWQWR-OH
[1]
  MIC: > 80 µM

## O=C(O)c1cn(C2CC2)c2cc(N3CCNCC3)c(F)cc2c1=O [CIPROFLOXACIN]
[2]
  Activity: 98.11 - 99.99%
[3]
  log(activity): 2.67
[4]
  Activity: Active
[1]
  MIC: 0.05 µM (≈ 0.0166 µg/mL)
[5]
  Survival: 5.5 ×10³ CFU/ml
[6]
  log(activity): 3.26

## N=C(N)NCCC[C@H](NC(=O)[C@H](CCCNC(=N)N)NC(=O)[C@H](CCCNC(=N)N)NC(=O)[C@H](CCC(N)=O)NC(=O)[C@H](CCCNC(=N)N)NC(=O)[C@H](CCCNC(=N)N)NC(=O)[C@H](CCCCN)NC(=O)[C@H](CCCCN)NC(=O)[C@H](CCCNC(=N)N)NC(=O)CNC(=O)[C@@H](N)Cc1ccc(O)cc1)C(=O)O
[1]
  MIC: > 80 µM

## CC(C)[C@@H]1NC(=O)[C@H](C)NC(=O)[C@H](CC(N)=O)NC(=O)[C@H](CCCNC(=N)N)NC(=O)[C@H](Cc2ccc(O)cc2)NC(=O)[C@H](C(C)C)NC(=O)[C@@H]2CSSC[C@H](NC(=O)[C@H](C(C)C)NC(=O)[C@H](CCCNC(=N)N)NC1=O)C(=O)N[C@@H](Cc1cnc[nH]1)C(=O)N[C@@H](CCCNC(=N)N)C(=O)N[C@@H](CCCNC(=N)N)C(=O)N[C@H](C(=O)N[C@@H](CC(N)=O)C(=O)O)CSSC[C@H](NC(=O)[C@H](Cc1ccccc1)NC(=O)[C@H](C)N)C(=O)N[C@@H](Cc1c[nH]c3ccccc13)C(=O)N[C@@H](CC(N)=O)C(=O)N[C@@H](C(C)C)C(=O)N2
[2]
  Activity: 22.41 - 69.74%
[7]
  MIC: 25 µM (≈ 64.2 µg/mL)
[1]
  MIC: 0.78 µM (≈ 2 µg/mL)
[5]
  Survival: 2.3 ×10⁵ CFU/ml

## CC(C)[C@@H]1NC(=O)[C@H](C)NC(=O)[C@H](CC(N)=O)NC(=O)[C@H](CCCNC(=N)N)NC(=O)[C@H](Cc2ccc(O)cc2)NC(=O)[C@H](C(C)C)NC(=O)[C@@H]2CSSC[C@@H](NC(=O)[C@H](C(C)C)NC(=O)[C@H](CCCNC(=N)N)NC1=O)C(=O)N[C@@H](Cc1cnc[nH]1)C(=O)N[C@@H](CCCNC(=N)N)C(=O)N[C@@H](CCCNC(=N)N)C(=O)N[C@H](C(=O)N[C@@H](CC(N)=O)C(=O)O)CSSC[C@H](NC(=O)[C@H](Cc1ccccc1)NC(=O)[C@H](C)NC(=O)[C@H](CCCNC(=N)N)NC(=O)[C@H](Cc1c[nH]c3ccccc13)NC(=O)[C@H](CCC(N)=O)NC(=O)[C@H](Cc1c[nH]c3ccccc13)NC(=O)[C@H](CCCNC(=N)N)NC(=O)[C@@H](N)CCCNC(=N)N)C(=O)N[C@@H](Cc1c[nH]c3ccccc13)C(=O)N[C@@H](CC(N)=O)C(=O)N[C@@H](C(C)C)C(=O)N2
[8]
  Activity: Active
[9]
  Activity: inactive
[10]
  Activity: Active

## CC(C)[C@@H]1NC(=O)[C@H](C)NC(=O)[C@H](CC(N)=O)NC(=O)[C@H](CCCNC(=N)N)NC(=O)[C@H](Cc2ccc(O)cc2)NC(=O)[C@H](C(C)C)NC(=O)[C@@H]2CSSC[C@H](NC(=O)[C@H](C(C)C)NC(=O)[C@H](CCCNC(=N)N)NC1=O)C(=O)N[C@@H](Cc1cnc[nH]1)C(=O)N[C@@H](CCCNC(=N)N)C(=O)N[C@@H](CCCNC(=N)N)C(=O)N[C@H](C(=O)N[C@@H](CC(N)=O)C(=O)O)CSSC[C@H](NC(=O)[C@H](Cc1ccccc1)NC(=O)[C@H](C)NC(=O)[C@H](CCCNC(=N)N)NC(=O)[C@H](Cc1c[nH]c3ccccc13)NC(=O)[C@H](CCC(N)=O)NC(=O)[C@H](Cc1c[nH]c3ccccc13)NC(=O)[C@H](CCCNC(=N)N)NC(=O)[C@@H](N)CCCNC(=N)N)C(=O)N[C@@H](Cc1c[nH]c3ccccc13)C(=O)N[C@@H](CC(N)=O)C(=O)N[C@@H](C(C)C)C(=O)N2
[11]
  Drug uptake: Not Active
[12]
  Drug uptake: 28.3%
[13]
  Drug uptake: 17.9%
[14]
  Drug uptake: Not Active
[15]
  Drug uptake: 70.9%
[16]
  Drug uptake: 57.2%
[17]
  Drug uptake: Not Active
[18]
  Drug uptake: Active
[19]
  Drug uptake: Dose-dependent effect and Tde
[20]
  Drug uptake: Not Active
[21]
  Drug uptake: 96.3%
[22]
  viability at 8 h, 100 µM: 86.5%

## CC(C)[C@@H]1NC(=O)[C@H](C)NC(=O)[C@H](CC(N)=O)NC(=O)[C@H](CCCNC(=N)N)NC(=O)[C@H](Cc2ccc(O)cc2)NC(=O)[C@H](C(C)C)NC(=O)[C@@H]2CSSC[C@@H](NC(=O)[C@H](C(C)C)NC(=O)[C@@H](CCCNC(=N)N)NC1=O)C(=O)N[C@@H](Cc1cnc[nH]1)C(=O)N[C@H](CCCNC(=N)N)C(=O)N[C@@H](CCCNC(=N)N)C(=O)N[C@@H](C(=O)N[C@@H](CC(N)=O)C(=O)O)CSSC[C@H](NC(=O)[C@H](Cc1ccccc1)NC(=O)[C@H](C)NC(=O)[C@H](CCCNC(=N)N)NC(=O)[C@H](CCCNC(=N)N)NC(=O)[C@H](CCCNC(=N)N)NC(=O)[C@H](CCC(N)=O)NC(=O)[C@H](CCCNC(=N)N)NC(=O)[C@H](CCCNC(=N)N)NC(=O)[C@H](CCCCN)NC(=O)[C@H](CCCCN)NC(=O)[C@H](CCCNC(=N)N)NC(=O)CNC(=O)[C@@H](N)Cc1ccc(O)cc1)C(=O)N[C@@H](Cc1c[nH]c3ccccc13)C(=O)N[C@H](CC(N)=O)C(=O)N[C@@H](C(C)C)C(=O)N2
[8]
  Activity: Active
[9]
  Activity: inactive
[23]
  Activity: Active
[10]
  Activity: Active

## CC(C)[C@@H]1NC(=O)[C@H](C)NC(=O)[C@H](CC(N)=O)NC(=O)[C@H](CCCNC(=N)N)NC(=O)[C@H](Cc2ccc(O)cc2)NC(=O)[C@H](C(C)C)NC(=O)[C@@H]2CSSC[C@H](NC(=O)[C@H](C(C)C)NC(=O)[C@H](CCCNC(=N)N)NC1=O)C(=O)N[C@@H](Cc1cnc[nH]1)C(=O)N[C@@H](CCCNC(=N)N)C(=O)N[C@@H](CCCNC(=N)N)C(=O)N[C@H](C(=O)N[C@@H](CC(N)=O)C(=O)O)CSSC[C@H](NC(=O)[C@H](Cc1ccccc1)NC(=O)[C@H](C)NC(=O)[C@H](CCCNC(=N)N)NC(=O)[C@H](CCCNC(=N)N)NC(=O)[C@H](CCCNC(=N)N)NC(=O)[C@H](CCC(N)=O)NC(=O)[C@H](CCCNC(=N)N)NC(=O)[C@H](CCCNC(=N)N)NC(=O)[C@H](CCCCN)NC(=O)[C@H](CCCCN)NC(=O)[C@H](CCCNC(=N)N)NC(=O)CNC(=O)[C@@H](N)Cc1ccc(O)cc1)C(=O)N[C@@H](Cc1c[nH]c3ccccc13)C(=O)N[C@@H](CC(N)=O)C(=O)N[C@@H](C(C)C)C(=O)N2
[11]
  Drug uptake: Not Active
[12]
  Drug uptake: 93.5%
[13]
  Drug uptake: 8.3%
[14]
  Drug uptake: Not Active
[15]
  Drug uptake: 99.9%
[16]
  Drug uptake: 99.8%
[17]
  Drug uptake: Not Active
[18]
  Drug uptake: Active
[19]
  Drug uptake: Dose-dependent effect and Tde
[20]
  Drug uptake: Not Active
[21]
  Drug uptake: 99.9%
[22]
  viability at 8 h, 100 µM: 90.2%

## CC(C)[C@@H]1NC(=O)[C@H](C)NC(=O)[C@H](CC(N)=O)NC(=O)[C@H](CCCNC(=N)N)NC(=O)[C@H](Cc2ccc(O)cc2)NC(=O)[C@H](C(C)C)NC(=O)[C@@H]2CSSC[C@H](NC(=O)[C@H](C(C)C)NC(=O)[C@H](CCCNC(=N)N)NC1=O)C(=O)N[C@@H](Cc1cnc[nH]1)C(=O)N[C@@H](CCCNC(=N)N)C(=O)N[C@@H](CCCNC(=N)N)C(=O)N[C@@H](C(=O)N[C@@H](CC(N)=O)C(=O)O)CSSC[C@H](NC(=O)[C@H](Cc1ccccc1)NC(=O)[C@H](C)N)C(=O)N[C@@H](Cc1c[nH]c3ccccc13)C(=O)N[C@@H](CC(N)=O)C(=O)N[C@@H](C(C)C)C(=O)N2
[9]
  Activity: inactive
[10]
  Activity: Active
